Read-outs that look alike come from different tables or passages of the source.
Assay: Placebo controlled, dose escalation pharmacokinetic study of oral (Z)-Endoxifen capsules (serum endoxifen; incl. accumulation ratios and dose linearity)
Type: in vivo, human
Conditions: female, human, serum
Excerpt: An objective of the study was to assess the safety and tolerability of oral (Z)-Endoxifen when administered […] orally as a capsule to healthy female volunteers. A secondary objective was to assess the pharmacokinetics of multiple doses of oral (Z)-Endoxifen in the subjects.
Generally, healthy female volunteers aged ≥18 years and ≤65 years were enrolled. 24 participants were enrolled in 3 cohorts and will be administered study drug orally. Three dose levels of orally administered (Z)-Endoxifen were investigated in 3 cohorts. In each cohort participants were randomized to receive an oral (Z)-Endoxifen or placebo in a blinded fashion. Enteric-resistant capsules used in the study were designed as delayed release capsules to resist rupture for at least 30 minutes, but typically, for about 2 hours, under gastric conditions and then open fully in intestinal fluid (DRCaps; Capsugel, a Lonza Company, USA). Enteric-resistant (Swedish Orange size Zero (0); Capsugel, USA) DRCaps capsules manually filled with 1, 2 or 4 mg of (Z)-endoxifen neat in compliance with GMP requirements were used. Placebo capsules contained microcrystalline cellulose an inert common capsule and tablet excipient.
Each cohort enrolled 8 participants, with 6 participants receiving (Z)-Endoxifen 1 mg capsules orally at 1 mg (Cohort 1), 2 mg (Cohort 2) or 4 mg (Cohort 3) doses and 2 participants receiving matching placebo capsules. In Cohort 1 (Dose Level=1 mg) two participants (sentinels) were dosed 24 hours prior to the remaining participants. One sentinel was dosed with (Z)-Endoxifen and the other with placebo. The remaining six participants in Cohort 1 were dosed as no safety concerns were identified in the sentinel participants. The non-sentinel participants in Cohort 1 were admitted to the clinical research facility at least one day later than the sentinels. There were no sentinels in Cohorts 2 and 3.
Participant engagement in this study was for a period of 56 days. These included a 28 day screening period, and a 7 day post treatment period for Pharmacokinetic (PK) sampling. There were two confinement periods, one at the beginning and one at the end of the dosing periods. Participants were confined to the clinical facility on Days-1 through to Day 2 and Days 21 and 22. If participants were to experience any clinically significant adverse events during the study, they would have been required to remain in the clinical facility for further observation at the discretion of the Principal Investigator (PI).
Healthy female volunteers were screened within 28 days prior to commencement of dosing. Participants were admitted to the clinical facility on Day-1 for up to 3 days. The first dose of (Z)-Endoxifen or placebo capsules was administered on Day 1. Following completion of all safety assessments and sampling for PK analyses, participants were discharged from the clinical facility on Day 2. The first dose on Day 1 was followed by a 6-day treatment free period (Days 2-7). Each participant returned to the clinical facility for PK blood draws and safety assessments during the treatment free period on study Days 4 and 6. On Day 8 participants commenced daily administration of (Z)-Endoxifen capsules or placebo capsules for 14 consecutive days (Days 8-21). Participants were supplied with study drug capsules and asked to self administer daily. Participants visited the clinical facility on Days 11, 14 and 17, prior to dose administration, for PK blood draws and safety assessments. On the morning of Day 21 each participant returned to the clinical facility prior to dose administration and were confined to the facility until Day 22 to allow for the collection of PK blood draws and safety assessments. The Day 21 dose was the last administration of study drug. Participants were discharged from the clinical facility on Day 22 and returned for PK blood draws and safety assessments on study Days 24, 26, and 28. […]

- AUC(0-inf) (oral, 2 mg, Day 1, 2 mg, N 6, read-out: AUC0-inf, Mean): 1110 ng·h/mL
- AUC(0-inf) (oral, 2 mg, Day 1, 2 mg, N 6, read-out: AUC0-inf, Median): 1100 ng·h/mL
- AUC(0-t) (oral, 2 mg, Day 1, 2 mg, N 6, read-out: AUC24hr, GeoMean): 301 ng·h/mL
- AUC(0-t) (oral, 2 mg, Day 1, 2 mg, N 6, read-out: AUC24hr, Mean): 305 ng·h/mL
- AUC(0-t) (oral, 2 mg, Day 1, 2 mg, N 6, read-out: AUC24hr, Median): 303 ng·h/mL
- AUC(0-t) (oral, 2 mg, Day 1, 2 mg, N 6, read-out: AUCTlast, GeoMean): 862 ng·h/mL
- AUC(0-t) (oral, 2 mg, Day 1, 2 mg, N 6, read-out: AUCTlast, Mean): 889 ng·h/mL
- AUC(0-t) (oral, 2 mg, Day 1, 2 mg, N 6, read-out: AUCTlast, Median): 955 ng·h/mL
- Cmax (oral, 2 mg, Day 1, 2 mg, N 6, read-out: Cmax, GeoMean): 17.3 ng/mL
- Cmax (oral, 2 mg, Day 1, 2 mg, N 6, read-out: Cmax, Mean): 17.7 ng/mL
- Cmax (oral, 2 mg, Day 1, 2 mg, N 6, read-out: Cmax, Median): 17.5 ng/mL
- Tmax (oral, 2 mg, Day 1, 2 mg, N 6, read-out: Tmax, GeoMean): 4.19 h
- Tmax (oral, 2 mg, Day 1, 2 mg, N 6, read-out: Tmax, Mean): 4.28 h
- Tmax (oral, 2 mg, Day 1, 2 mg, N 6, read-out: Tmax, Median): 4.17 h
- Vd/F (oral, 2 mg, Day 1, 2 mg, N 6, read-out: Vz/F, GeoMean): 127 L
- Vd/F (oral, 2 mg, Day 1, 2 mg, N 6, read-out: Vz/F, Mean): 131 L
- Vd/F (oral, 2 mg, Day 1, 2 mg, N 6, read-out: Vz/F, Median): 118 L
- half-life (oral, 1-4 mg, read-out: apparent terminal half life (t½) by dose level): 42 to 53 h
- Tmax (oral, Days 1 and 21, 1-4 mg, read-out: Median Tmax by dose level): 4 to 8 h
- AUC(0-inf) (oral, dosing range of 1 mg to 4 mg, read-out: AUC0-inf): 400 to 6000 ng·h/mL
- AUC(0-inf) (po, 1 mg, Dose: 1 mg oral, Day 1, read-out: AUC(0-inf), individual subjects): 593 ng·h/mL
- AUC(0-t) (po, 1 mg/day, Day 1, 1 mg/day oral (n = 5), read-out: AUC24 hr, Arithmetic Mean): 158 ng·h/mL
- Cmax (po, 1 mg/day, Day 1, 1 mg/day oral (n = 5), read-out: Cmax, Arithmetic Mean): 9.6 ng/mL
- Tmax (po, 1 mg/day, Day 1, 1 mg/day oral (n = 5), read-out: Median Tmax): 6 h
- Tmax (po, 1 mg/day, Day 1, 1 mg/day oral (n = 5), read-out: Tmax (Range)): 2 to 8.08 h
- half-life (po, 1 mg/day, Day 1, 1 mg/day oral (n = 5), read-out: t1/2, Arithmetic Mean (converted)): 41.1 h
- AUC(0-t) (po, 1 mg/day, Day 21, 1 mg/day oral (n = 5), read-out: AUC24 hr, Arithmetic Mean): 458 ng·h/mL
- Cmax (po, 1 mg/day, Day 21, 1 mg/day oral (n = 5), read-out: Cmax, Arithmetic Mean): 24.6 ng/mL
- Tmax (po, 1 mg/day, Day 21, 1 mg/day oral (n = 5), read-out: Median Tmax): 8 h
- Tmax (po, 1 mg/day, Day 21, 1 mg/day oral (n = 5), read-out: Tmax (Range)): 4 to 6.05 h
- half-life (po, 1 mg/day, Day 21, 1 mg/day oral (n = 5), read-out: t1/2, Arithmetic Mean (converted)): 52.6 h
- AUC(0-t) (po, 2 mg, Day 21, dose 2 mg oral once daily, GeoMean, N 6, read-out: AUC24hr): 897 ng·h/mL
- Cmax (po, 2 mg, Day 21, dose 2 mg oral once daily, GeoMean, N 6, read-out: Cmax): 48.8 ng/mL
- Tmax (po, 2 mg, Day 21, dose 2 mg oral once daily, GeoMean, N 6, read-out: Tmax): 3.64 h
- half-life (po, 2 mg, Day 21, dose 2 mg oral once daily, GeoMean, N 6, read-out: apparent terminal half life (t½) (converted)): 42.8 h
- Vd/F (po, 2 mg, Day 21, dose 2 mg oral once daily, GeoMean, N 6, read-out: volume of distribution (Vd/F)): 138 L
- AUC(0-t) (po, 2 mg, Day 21, dose 2 mg oral once daily, Mean, N 6, read-out: AUC24hr): 911 ng·h/mL
- Cmax (po, 2 mg, Day 21, dose 2 mg oral once daily, Mean, N 6, read-out: Cmax): 50 ng/mL
- Tmax (po, 2 mg, Day 21, dose 2 mg oral once daily, Mean, N 6, read-out: Tmax): 4.01 h
- half-life (po, 2 mg, Day 21, dose 2 mg oral once daily, Mean, N 6, read-out: apparent terminal half life (t½) (converted)): 43.4 h
- Vd/F (po, 2 mg, Day 21, dose 2 mg oral once daily, Mean, N 6, read-out: volume of distribution (Vd/F)): 139 L
- AUC(0-t) (po, 2 mg, Day 21, dose 2 mg oral once daily, Median, N 6, read-out: AUC24hr): 910 ng·h/mL
- Cmax (po, 2 mg, Day 21, dose 2 mg oral once daily, Median, N 6, read-out: Cmax): 51 ng/mL
- Tmax (po, 2 mg, Day 21, dose 2 mg oral once daily, Median, N 6, read-out: Tmax): 4 h
- half-life (po, 2 mg, Day 21, dose 2 mg oral once daily, Median, N 6, read-out: apparent terminal half life (t½) (converted)): 45.7 h
- Vd/F (po, 2 mg, Day 21, dose 2 mg oral once daily, Median, N 6, read-out: volume of distribution (Vd/F)): 132 L
- AUC(0-inf) (po, 2 mg, Dose: 2 mg oral, Day 1, read-out: AUC(0-inf), individual subjects): 1010 ng·h/mL
- AUC(0-t) (po, 2 mg/day, Day 1, 2 mg/day oral (n = 6), read-out: AUC24 hr, Arithmetic Mean): 305 ng·h/mL
- Cmax (po, 2 mg/day, Day 1, 2 mg/day oral (n = 6), read-out: Cmax, Arithmetic Mean): 17.7 ng/mL
- Tmax (po, 2 mg/day, Day 1, 2 mg/day oral (n = 6), read-out: Median Tmax): 4.17 h
- Tmax (po, 2 mg/day, Day 1, 2 mg/day oral (n = 6), read-out: Tmax (Range)): 3 to 6 h
- half-life (po, 2 mg/day, Day 1, 2 mg/day oral (n = 6), read-out: t1/2, Arithmetic Mean (converted)): 49 h
Structure (SMILES): CC/C(=C(\c1ccc(O)cc1)c1ccc(OCCNC)cc1)c1ccccc1 [(Z)-Endoxifen, (Z)-4-(1-(4-(2-(methylamino)ethoxy)phenyl)-2-phenylbut-1-enyl) phenol]

Source: patent publication US12275684B2, “Methods for making and using endoxifen” (Atossa Therapeutics, Inc., priority 2017, dated 2025)
